assay: Cassette dosing and serum analysis for determination of bioavailability; assay type: in vivo, rat; settings: male Sprague Dawley rats, oral cassette of 6 compounds as sodium salts, total dose 10 mg/kg, plasma at 4, 8 and 12 h, linear trapezoidal rule
Experimental: Cassette Dosing and Serum Analysis for Determination of Bioavailability
The cassette included 5 test articles and a standard compound, for a total dose of 10 mg/kg. Each compound/test article was converted to the sodium salt with equimolar 1 N NaOH and dissolved in water at 2 mg/mL. The cassette was prepared by mixing equal volumes of each of the six solutions. The cassette dosing solution was mixed well and then the pH was adjusted to 7.5–9. The dosing solution was prepared the day before the study and stirred overnight at room temperature.
Male Sprague Dawley (SD) rats from Charles River Laboratories, 6–8 weeks old were used in this screen. Rats were quarantined for at least one day and had continuous access to food and water. On the night before the administration of the cassette, the rats were fasted for approximately 16 h.
Four SD rats were assigned in each cassette. A single dose of the dosing solution was administered orally to each rat. The dosing volume (5 mL/kg) and time were recorded and rats were fed 2 h after dosing.
Blood samples were collected via cardiac puncture at the following time points: 4 h, 8 h and 12 h. Immediately prior to blood collection, rats were anesthetized with CO2 gas within 10–20 seconds. After the 12-h samples were collected, the rats were euthanized via CO2 asphyxiation followed by cervical dislocation.
Blood samples were kept in heparinized microtainer tubes under sub-ambient temperature (4° C.) before they were processed. Blood samples were centrifuged (10000 rpm for 5 minutes) and plasma samples were removed and stored in a −20° C. freezer until analyzed for drug levels. Drug levels in the plasma were analyzed using the following protocol for direct plasma precipitation.
The in vivo plasma samples were prepared in a 1.5 mL 96-well plate, by adding, in order, 100 μL of the test plasma, 150 μL of methanol, followed by vortexing for 10–20 seconds. 150 μL of 0.05 ng/μL of an Internal Standard in acetonitrile were added and vortexed for 30 seconds.
The standard curve samples were prepared in a 1.5 mL 96-well plate, by adding, in order, 100 μL of control mouse plasma, followed by 150 μL of methanol and vortexing for 10–20 seconds. 150 μL of 0.05 ng/μL of an Internal Standard in acetonitrile were added and vortexed for 30 seconds. The samples were spiked with 0–200 ng (10 concentrations) of the compound of interest in 50% methanol to obtain a standard curve range of 0.5 ng/mL–2,000 ng/mL. Again, the sample was vortexed for 30 seconds.
The samples were then spun for 20–30 minutes at 3000 rpm in an Eppendorf microfuge before 80–90% of supernatant was transferred into a clean 96-well plate. The organic solvent was then evaporated until the samples were dry (under N2 at 40° C./30–60 min (ZymarkTurbovap)).
The residue was then dissolved in […] mobile phase (50% CH3OH/0.1% TFA). LC/MS/MS was then run using a PE-Sciex API-3000 triple quadurpole mass spectrometer (SN0749707), Perkin-Elmer, Series200auto-sampler, and shimadzu 10A pump. Acquisition was done with PE-Sciex Analyst (v1.1) and data analysis and quantification were accomplished using PE-Sciex Analyst (v1.1). A 5–50 μL sample volume was injected onto a reverse phase ThermoHypersil DASH-18 column (Keystone 2.0×20 mm, 5 μm, PN: 8823025-701) using a mobile phase of 25% CH3OH, 0.1% TFA-100% CH3OH, 0.1% TFA. The run time was about 8 minutes at a flow rate of about 300 μL/minutes.
The Area Under the Curve (AUC) was calculated using the linear trapezoidal rule from t=0 to the last sampling time tx (see Handbook of Basic Pharmacokinetics, Wolfgang A. Ritschel and Gregory L. Kearns, 5th ed, 1999). AUC^0−tx=S((Cn+Cn+1)/2))·(tn+1−tn)[(μg/mL)h]

Row | SMILES | AUC (average AUC 0→12 h)
1 | CCN(CC)c1ncc(N(CC)S(=O)(=O)c2ccc(F)cc2)c(N[C@@H](Cc2ccc(OC(=O)N3CCC3)cc2)C(=O)O)n1 [Example 7, N-(2-[N′,N′-diethylamino]-5-[N″-(4-fluorophenylsulfonyl)-N″-ethylamino]pyrimidin-4-yl)-4-(azetidin-1-ylcarbonyloxy)-L-phenylalanine] | 0.8979 (μg/mL)h
2 | CCN(CC)c1ncc(N(C)S(=O)(=O)c2ccc(F)cc2F)c(N[C@@H](Cc2ccc(OC(=O)N3CCC3)cc2)C(=O)O)n1 [Example 13, N-(2-[N′,N′-diethylamino]-5-[N″-(2,4-difluorophenylsulfonyl)-N″-methylamino]pyrimidin-4-yl)-4′-(azetidin-1-ylcarbonyloxy)-L-phenylalanine] | 1.283 (μg/mL)h
3 | CCN(CC)c1ncc(N(C)S(=O)(=O)c2ccc(F)cc2)c(N[C@@H](Cc2ccc(OC(=O)N3CCC3)cc2)C(=O)O)n1 [Example 8, N-(2-[N′,N′-diethylamino]-5-[N″-(4-fluorophenylsulfonyl)-N″-methylamino]pyrimidin-4-yl)-4′-(azetidin-1-ylcarbonyloxy)-L-phenylalanine] | 2.4082 (μg/mL)h
4 | C#CCN(c1cnc(N(CC)CC)nc1N[C@@H](Cc1ccc(OC(=O)N2CCCC2)cc1)C(=O)O)S(=O)(=O)c1ccc(F)cc1 [Example 15, N-(2-[N′,N′-diethylamino]-5-[N″-(4-fluorophenylsulfonyl)-N″-propargylamino]pyrimidin4-yl)-4′-(pyrrolidin-1-ylcarbonyloxy)-L-phenylalanine] | 90.317 (μg/mL)h
5 | CCN(CC)c1ncc(N(C)S(=O)(=O)c2ccc(F)cc2)c(N[C@@H](Cc2ccc(OC(=O)N3CCCCC3)cc2)C(=O)O)n1 [Example 5, N-(2-[N′,N′-diethylamino]-5-[N″-(4-fluorophenylsulfonyl)-N″-methylamino]pyrimidin-4-yl)-4′-(piperidin-1-ylcarbonyloxy)-L-phenylalanine] | 2.1654 (μg/mL)h
6 | CCN(CC)c1ncc(N(CC)S(=O)(=O)c2ccc(F)cc2F)c(N[C@@H](Cc2ccc(OC(=O)N3CCCC3)cc2)C(=O)O)n1 [Example 12, N-(2-[N′,N′-diethylamino]-5-[N″-(2,4-difluorophenylsulfonyl)-N″-ethylamino]pyrimidin-4-yl)-4′-(pyrrolidin-1-ylcarbonyloxy)-L-phenylalanine] | 4.7816 (μg/mL)h
7 | CCN(CC)c1ncc(N(CC)S(=O)(=O)c2ccc(F)cc2F)c(N[C@@H](Cc2ccc(OC(=O)N3CCC3)cc2)C(=O)O)n1 [Example 14, N-(2-[N′N′-diethylamino]-5-[N″-(2,4-difluorophenylsulfonyl)-N″ethylamino]pyrimidin-4-yl)-4′-(azetidin-1-ylcarbonyloxy)-L-phenylalanine] | 0.3566 (μg/mL)h
8 | C#CCN(c1cnc(N(CC)CC)nc1N[C@@H](Cc1ccc(OC(=O)N2CCC2)cc1)C(=O)O)S(=O)(=O)c1ccc(F)cc1F [Example 17, N-(2-[N′,N′-diethylamino]-5-[N″-(2,4-difluorophenylsulfonyl)-N″-propargylamino]pyrimidin-4-yl)-4′-(azetidin-1-ylcarbonyloxy)-L-phenylalanine] | 0.8628 (μg/mL)h
9 | CCN(CC)c1ncc(N(CC)S(=O)(=O)c2ccc(Cl)cc2)c(N[C@@H](Cc2ccc(OC(=O)N3CCC3)cc2)C(=O)O)n1 [Example 10, N-(2-[N′,N′-diethylamino]-5-[N″-(4-chlorophenylsulfonyl)-N″-ethylamino]pyrimidin-4-yl)-4′-(azetidin-1-ylcarbonyloxy)-L-phenylalanine] | 2.1113 (μg/mL)h
10 | CCN(CC)c1ncc(N(CC)S(=O)(=O)c2ccc(F)cc2)c(N[C@@H](Cc2ccc(OC(=O)N3CCCC3)cc2)C(=O)O)n1 [Example 2, N-(2-[N′,N′-diethylamino]-5-[N″-(4-fluorophenylsulfonyl)-N″-ethylamino]pyrimidin-4-yl)-4′-(pyrrolidin 1-ylcarbonyloxy)-L-phenylalanine] | 15.971 (μg/mL)h
11 | CCN(CC)c1ncc(N(C)S(=O)(=O)c2ccc(F)cc2F)c(N[C@@H](Cc2ccc(OC(=O)N3CCCC3)cc2)C(=O)O)n1 [Example 11, N-(2-[N′,N′-diethylamino]-5-[N″-(2,4-difluorophenylsulfonyl)-N″-methylamino]pyrimidin-4-yl)-4′-(pyrrolidin-1-ylcarbonyloxy)-L-phenylalanine] | 14.818 (μg/mL)h
12 | C#CCN(c1cnc(N(CC)CC)nc1N[C@@H](Cc1ccc(OC(=O)N2CCC2)cc1)C(=O)O)S(=O)(=O)c1ccc(F)cc1 [Example 18, N-(2-[N′,N′-diethylamino]-5-[N″-(4-fluorophenylsulfonyl)-N″-propargylamino]pyrimidin-4-yl)-4′(azetidin-1-ylcarbonyloxy)-L-phenylalanine] | 4.7528 (μg/mL)h
13 | CCN(CC)c1ncc(N(C)S(=O)(=O)c2ccc(Cl)cc2)c(N[C@@H](Cc2ccc(OC(=O)N3CCC3)cc2)C(=O)O)n1 [Example 9, N-(2-[N′,N′-diethylamino]-5-[N″-(4-chlorophenylsulfonyl)-N″-methylamino]pyrimidin-4-yl)-4′-(azetidin-1-ylcarbonyloxy)-L-phenylalanine] | 2.0774 (μg/mL)h
14 | C#CCN(c1cnc(N(CC)CC)nc1N[C@@H](Cc1ccc(OC(=O)N2CCCC2)cc1)C(=O)O)S(=O)(=O)c1ccc(F)cc1F [Example 16, N-(2-[N′,N′-diethylamino]-5-[N″-(2,4-difluorophenylsulfonyl)-N″-propargylamino]pyrimidin-4-yl)-4′-(pyrrolidin-1-ylcarbonyloxy)-L-phenylalanine] | 23.808 (μg/mL)h
15 | CCN(CC)c1ncc(N(C)S(=O)(=O)c2ccc(Cl)cc2)c(N[C@@H](Cc2ccc(OC(=O)N3CCCC3)cc2)C(=O)O)n1 [Example 4] | 13.829 (μg/mL)h
16 | CCN(CC)c1ncc(N(C)S(=O)(=O)c2ccc(F)cc2)c(N[C@@H](Cc2ccc(OC(=O)N3CCCC3)cc2)C(=O)O)n1 [Example 3, N-(2-[N′,N′-diethylamino]-5-[N″-(4-fluorophenylsulfonyl)-N″-methylamino]pyrimidin-4-yl)-4′-(pyrrolidin-1-ylcarbonyloxy)-L-phenylalanine] | 22.271 (μg/mL)h
17 | CCN(CC)c1ncc(N(CC)S(=O)(=O)c2ccc(Cl)cc2)c(N[C@@H](Cc2ccc(OC(=O)N3CCCC3)cc2)C(=O)O)n1 [Example 1, N-(2-[N′,N′-diethylamino]-5-[N″-(4-chlorophenylsulfonyl)-N″-ethylamino]pyrimidin-4-yl)-4′-(pyrrolidin-1-ylcarbonyloxy)-L-phenylalanine] | 14.798 (μg/mL)h
18 | CCN(CC)c1ncc(N(CC)S(=O)(=O)c2ccc(F)cc2)c(N[C@@H](Cc2ccc(OC(=O)N3CCCCC3)cc2)C(=O)O)n1 [Example 6, N-(2-[N′,N′-diethylamino]-5-[N″-(4-fluorophenylsulfonyl)-N″-ethylamino]pyrimidin-4-yl)-4′-(piperidin-1-ylcarbonyloxy)-L-phenylalanine] | 0.5125 (μg/mL)h

Source: patent US7135477B2, “Heterocyclic compounds which inhibit leukocyte adhesion mediated by α4 integrins” (Elan Pharmaceuticals, Inc., priority 2002, dated 2006)
